Laboratory results from patent US20190290182A1, “METHOD OF DIAGNOSTIC RELEVANCE BASED ON TASTE RECOGNITION” (RANVIER HEALTH LIMITED, priority 2016, published 2019).
“Also recorded” adds a separate entry of the source.

What was measured:
healthy volunteers = conditions: healthy individuals; acute dose; two hours after administration; cited from earlier work
[1] = system: individuals with untreated clinical depression; test: Taste recognition thresholds before and two hours after acute paroxetine (SSRI) challenge; format: in vivo, human
Protocol: Taste responses to sweet, salt, bitter and sour stimuli were then determined. Individuals were informed of which taste modality (sweet, bitter, salt, sour) they were receiving but were given no indication of whether the tester thought they would be able to recognise the taste or not.
The taste modalities were applied in solution to the tip of the tongue, using a cotton bud saturated with the solution at room temperature and placed on the tongue for approximately 5 seconds. Without closing their mouth the subject was asked to indicate whether or not they could taste the stimulus at that concentration. Between each stimulus application a 20 second inter-stimulus interval was adhered to during which the subject would rinse their mouth with approximately 25 ml of deionized water.
Each concentration of stimulus was presented to the subject five times in total, and the percentage of positive responses at each concentration determined. Subjects were first presented with a solution above threshold and thereafter, stimuli were presented in a pseudorandom order in concentrations representing ¼ log steps between the lowest (undetectable, 0% detection) to the highest (always detectable, 100% detection) concentrations, with each concentration being presented 5 times.
The range of concentrations for each taste modality was different, as detailed below: • Sweet (1M-300 μM sucrose) • Bitter (300 μM-0.3 μM quinine hydrochloride) • Salt (1M-0.2 mM NaCl) • Sour (100 mM-0.56 mM citric acid; C6H8O7).
Taste psychometric functions before and after paroxetine administration were also determined for all the individuals with previously untreated depression. From these curves, taste recognition thresholds (the concentration at which the subject would recognize the taste 50% of the time) were calculated before and after challenge in order to determine the degree of change in taste recognition that occurred (Heath et al., (2006) Journal of Neuroscience 26(49): 12664-71).
Taste recognition thresholds were determined by testing a solution of a taste modality (sweet, salt, sour, bitter) on the tip of the tongue, and the subject confirmed whether or not they recognised the taste. Referring to FIG. 3, a curve was then constructed of the number of correct identifications against the concentration of the taste in the solution. The taste recognition threshold was calculated from the curve as the concentration at which the subject would correctly identify the taste 50% of the time (Heath, Melichar, Nutt & Donaldson (2006) Journal of Neuroscience 26(49): 12664-71). […]
Patients referred to a depression clinic in Hyderabad, India were screened and recruited to the study. They had their taste recognition threshold assessed before and two hours after taking an antidepressant (Paroxetine, SSRI). […]

Row | Compound | bitter and sour thresholds (healthy volunteers) | post-challenge taste recognition thresholds versus healthy controls ([1]; all taste modalities, controls without challenge) | post-challenge taste recognition thresholds versus pre-challenge values (statistical significance) ([1]; salt, sweet, sour and bitter, Kruskal Wallis, post-hoc Dunn's tests) | taste recognition thresholds after acute challenge compared with baseline ([1]; salt, sweet, sour and bitter, paroxetine 20 mg, two hours after challenge, n=47) | effect on depressive symptoms ([1]; two hours after acute challenge) | bitter and sweet taste thresholds (healthy volunteers)
1 | CCOc1ccccc1OC(c1ccccc1)C1CNCCO1 (stereo not drawn) [reboxetine] | significantly reduced |  |  |  |  | 
2 | Fc1ccc([C@@H]2CCNC[C@H]2COc2ccc3c(c2)OCO3)cc1 [paroxetine] |  | significantly higher | not significantly different | reduced; also recorded: generally become lower | lack of immediate effect | significantly reduced
